Measured values: PMC11459966, “Oral pharmacokinetics and efficacy of oral phospholipid remdesivir nucleoside prodrugs against SARS-CoV-2 in mice” (Antimicrobial Agents and Chemotherapy, 2024)
Where two headings read alike, the source gives them in different places.

Tests used:
[1] = Cell viability assay (CellTiter-Glo), Huh7.5; details: human, Huh7.5 cells
[2] = Cell viability assay (CellTiter-Glo), Vero-TMPRSS2; assay type: cell-based, African green monkey; details: African green monkey, Vero-TMPRSS2 cells, 48 h incubation
Protocol: Cell viability assays (Table 1) were performed as previously described ([7]). Cells were cultured and seeded as per in vitro antiviral studies in opaque walled 96-well cell culture plates and incubated overnight for Huh7.5, A2T2-A549, and Vero-E6-TMPRSS2 cells and for 2 days for Calu-3 cells. Compounds or controls were added at the indicated concentrations in a total volume of 100 µL, and cells were incubated for 48 h. An equal volume of CellTiter-Glo reagent (Promega, Cat. #G7570) or CellTiter-Glo 2.0 reagent (Promega, Cat. #G9241) was added and mixed, and luminescence was recorded on a Veritas Microplate Luminometer (Turner BioSystems) or a Spark Multimode plate reader (Tecan) according to manufacturer instructions. Percent viability was normalized to DMSO controls, and CC50 values were derived from best fit curves calculated in Prism 10.

[3] = tested on: SARS-CoV-2 isolate USA-WA1/2020; test: microbe, parasite or virus in culture
[4] = Cell viability assay (CellTiter-Glo), A2T2-A549; details: human, A2T2-A549 cells
[5] = tested on: SARS-CoV-2 isolate USA-WA1/2020; test: microbe, parasite or virus in culture; remark: listed apart in the source
[6] = tested on: SARS-CoV-2 isolate USA-WA1/2020; test: microbe, parasite or virus in culture; remark: listed apart in the source
[7] = tested on: SARS-CoV-2 isolate USA-WA1/2020; details: Vero-TMPRSS2
[8] = Cell viability assay (CellTiter-Glo), Calu-3; details: human, Calu-3 cells
[9] = tested on: SARS-CoV-2 isolate USA-WA1/2020; details: A2T2-A549
[10] = tested on: SARS-CoV-2 isolate USA-WA1/2020; test: microbe, parasite or virus in culture; assay type: cell-based; details: Severe acute respiratory syndrome coronavirus 2; Calu-3 cells, 44–48 hpi

N#C[C@@]1(c2ccc3c(N)ncnn23)O[C@H](CO)[C@@H](O)[C@H]1O [RVn, reference compound]
CC50 at 48 h [1]: > 100000 nM | CC50 at 48 h [2]: > 100000 nM | EC50 ([3]; Severe acute respiratory syndrome coronavirus 2, Huh7.5, read-out: EC50 μM ± SD): 1.36 ± 0.544 µM | EC90 ([3]; Severe acute respiratory syndrome coronavirus 2, Huh7.5, read-out: EC90 μM ± SD): 2.96 ± 0.866 µM | CC50 at 48 h [4]: > 100000 nM | EC50 ([5]; Severe acute respiratory syndrome coronavirus 2, Vero/TMPRSS2, read-out: EC50 μM ± SD): 1.08 ± 0.264 µM | EC90 ([5]; Severe acute respiratory syndrome coronavirus 2, Vero/TMPRSS2, read-out: EC90 μM ± SD): 2.43 ± 0.692 µM | EC50 ([6]; Severe acute respiratory syndrome coronavirus 2, read-out: EC50 μM ± SD): 3.01 ± 0.038 µM | EC90 ([6]; Severe acute respiratory syndrome coronavirus 2, read-out: EC90 μM ± SD): 4.49 ± 0.256 µM | SI (CC50/EC50) [7]: >92 | CC50 at 48 h [8]: > 100000 nM | SI (CC50/EC50) [9]: >33 | EC50 [10]: 0.665 ± 0.284 µM | EC90 [10]: 1.89 ± 0.497 µM
